According to PMC9489682, “Synthesis and comparative evaluation of ^177Lu-labeled PEG and non-PEG variant peptides as HER2-targeting probes” (Scientific Reports, 2022):
Where two headings read alike, the source gives them in different places. Residues, ends and D or L forms follow the SMILES beside them. *: point of attachment. DOTA = O=C(O)CN1CCN(CC(=O)O)CCN(CC(=O)*)CCN(CC(=O)O)CC1; PEG5 = NCCOCCOCCOCCOCCOCCC(=O)O

Experiments:
[1] = Water solubility (remarks); assay type: physicochemical; conditions: authors' remark on the non-pegylated peptide
[2] = Biodistribution in SKBR3 tumor bearing SCID mice; assay type: in vivo; conditions: female, mouse, iv, 0.5 ug, total radioactivity, mean ± SD; for tissue to tissue ratio at 3 h: 3 h p.i.; for tissue to tissue ratio at 3 h / tissue to tissue ratio at 24 h / tissue to tissue ratio at 48 h: i.v. tail vein, 0.5 μg, 3.7 MBq; for tissue to tissue ratio at 24 h: 24 h p.i.; for tissue to tissue ratio at 48 h: 48 h p.i.
Protocol: Biodistribution studies of peptide tracers, [^177Lu]DOTA-A9 and [^177Lu]DOTA-PEG4-A9 were carried out in female SCID mice bearing human breast carcinoma, SKBR3 tumor xenografts. Tumor bearing mice (n = 3) were intravenously injected with peptide tracers (0.5 μg, 150 μL, 3.7 MBq) into the tail vein. Animals were sacrificed and dissected at 3 h, 24 h and 48 h post injection (p.i.). The radioactivity associated with each tissue was counted in a NaI (Tl) flat geometry detector and expressed as percentage injected dose per gram of tissue [% ID/g, mean ± standard deviation, n = 3/radiotracer].
Statistical analysis using the […] two-tailed Student’s t-test was performed to compare uptake values in tumor and major organs between [^177Lu]DOTA-A9 and [^177Lu]DOTA-PEG4-A9 animal groups; values of p < 0.05 were considered statistically significant.

Human serum stability = assay type: in vitro ADME; conditions: human serum 500 μL, pH 7.4, 37 °C, 6 h, 25 µL (3.7 MBq) radiopeptide, acetonitrile precipitation, RP-HPLC radiochromatogram
Protocol: For serum stability studies blood was allowed to clot (1 h) followed by centrifugation (2300×g, 10 min). Measurements were performed by incubation of radiopeptides (25 µL, 3.7 MBq) with human serum (500 μL, pH 7.4) at 37 °C. After 6 h incubation acetonitrile (500 μL) was added to the sample for protein precipitation. Subsequently the sample was centrifuged, supernatant was collected and radiochemical purity was analyzed by RP-HPLC.

HER2 = molecular target: T1, HER2 (Homo sapiens, UniProt P04626); assay: Saturation radioligand binding assay in SKBR3 cells; conditions: HER2 over expressing SKBR3 cells, 1 × 10^6 cells/well, 4–200 nM radiopeptide, 37 °C, 60 min, non-specific binding with unlabeled DOTA-A9, nonlinear regression, read-out: Binding affinity Kd
T1 construct: endogenous in cells; host or cells: SKBR3 human breast carcinoma cells
Protocol: The binding affinity of [^177Lu]DOTA-A9 and [^177Lu]DOTA-PEG4-A9 was determined by the saturation radioligand binding assay in HER2 over expressing SKBR3 cells. 1 × 10^6 cells/well were seeded in cell culture plates and incubated at 37 °C. Cells were treated with series of increasing concentration of the radiolabeled peptide (4–200 nM) and incubated at 37 °C for 60 min. For obtaining non-specific binding, cells were co-incubated with radiolabeled formulations along with unlabeled DOTA-A9 peptide. On completion of incubation, cells were washed with the ice-cold phosphate buffer saline (PBS). Cells with bound radioactivity were harvested with 1 N NaOH (1 mL) solution (at 37 °C for 3 min) and counted in a gamma counter. Kd value was calculated by the nonlinear regression algorithm (GraphPad Prism version 7.0). The Bmax value (nM) was converted to the number of HER2 receptors per cell.

MDA-MB-435 tumors = conditions: in vivo; cited from earlier work
Protocol: Besides A9 peptide other HER2-targeting peptides have been explored and investigated. […] However, the tumor uptake reduced to 0.10 ± 0.02% ID/g at 24 h p.i. which is much lower than the values of presently studied radiopeptides. […] Tumor-to muscle ra ...

U-87 MG tumors = conditions: in vivo; cited from earlier work
Protocol: Several Tc-99m-labeled peptides targeting HER2 receptors have also been studied. The high uptake of [^99mTc]HYNIC-(Ser)3-LTVPWY in U-87 MG tumors (2.08 ± 0.07% ID/g) at 1 h p.i. dropped to 0.04 ± 0.03% ID/g at 4 h p.i. […] Tumor-to-blood, tumor-to-muscle and tumor-to-kidney ratios reported were much lower for [^99mTc]CGGG-LTVSPWY and [^99mTc]CSSS-LTVSPWY compared to the current radiopeptides.

[3] = tumor / blood, n = 3, read-out: Tumor-to-blood ratio
[4] = tumor / muscle, n = 3, read-out: Tumor-to-muscle ratio

T1 sequence (P04626 23-1255): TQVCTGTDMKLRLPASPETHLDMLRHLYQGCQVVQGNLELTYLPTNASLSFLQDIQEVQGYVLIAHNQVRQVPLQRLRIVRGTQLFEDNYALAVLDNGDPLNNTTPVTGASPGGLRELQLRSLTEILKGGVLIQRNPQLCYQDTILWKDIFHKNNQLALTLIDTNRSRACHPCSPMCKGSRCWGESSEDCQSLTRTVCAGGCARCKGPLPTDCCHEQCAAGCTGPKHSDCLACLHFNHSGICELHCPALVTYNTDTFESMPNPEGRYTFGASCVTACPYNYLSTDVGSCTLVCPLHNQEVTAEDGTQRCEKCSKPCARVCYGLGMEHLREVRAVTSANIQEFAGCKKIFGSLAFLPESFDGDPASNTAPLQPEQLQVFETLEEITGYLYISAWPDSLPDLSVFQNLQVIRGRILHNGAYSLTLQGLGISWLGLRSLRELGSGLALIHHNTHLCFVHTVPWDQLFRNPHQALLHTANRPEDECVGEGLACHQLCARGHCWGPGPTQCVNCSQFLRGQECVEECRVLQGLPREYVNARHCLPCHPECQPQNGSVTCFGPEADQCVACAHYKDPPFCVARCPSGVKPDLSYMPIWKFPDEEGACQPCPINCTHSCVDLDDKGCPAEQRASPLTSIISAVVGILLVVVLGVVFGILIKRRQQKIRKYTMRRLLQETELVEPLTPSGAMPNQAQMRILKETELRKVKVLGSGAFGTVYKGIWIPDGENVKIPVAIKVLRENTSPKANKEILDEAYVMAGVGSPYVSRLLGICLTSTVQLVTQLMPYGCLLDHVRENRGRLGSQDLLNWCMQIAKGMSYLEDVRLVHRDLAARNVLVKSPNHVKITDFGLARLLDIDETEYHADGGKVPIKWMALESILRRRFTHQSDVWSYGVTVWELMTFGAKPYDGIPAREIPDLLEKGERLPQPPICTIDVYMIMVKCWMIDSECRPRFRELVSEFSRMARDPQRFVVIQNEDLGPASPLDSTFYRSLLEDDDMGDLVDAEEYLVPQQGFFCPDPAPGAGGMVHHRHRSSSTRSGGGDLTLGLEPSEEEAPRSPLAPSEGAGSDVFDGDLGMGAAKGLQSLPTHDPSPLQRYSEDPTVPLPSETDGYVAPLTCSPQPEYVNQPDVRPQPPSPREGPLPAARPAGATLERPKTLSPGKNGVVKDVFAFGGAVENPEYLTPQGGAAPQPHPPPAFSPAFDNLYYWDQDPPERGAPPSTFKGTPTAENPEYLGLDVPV

## CC(C)[C@H](NC(=O)[C@H](C)NC(=O)[C@@H](NC(=O)[C@H](CC(N)=O)NC(=O)[C@@H](NC(=O)[C@H](CC(=O)O)NC(=O)[C@H](CCC(N)=O)NC(=O)CN1CCN(CC(=O)O)CCN(CC(=O)O)CCN(CC(=O)O)CC1)C(C)C)[C@@H](C)O)C(=O)N[C@@H](C)C(=O)N[C@@H](Cc1c[nH]c2ccccc12)C(N)=O ({DOTA}-QDVNTAVAW-NH2)
other
  intact radiopeptide after 6 h in human serum: > 95%

## CC(C)[C@H](NC(=O)[C@H](C)NC(=O)[C@@H](NC(=O)[C@H](CC(N)=O)NC(=O)[C@@H](NC(=O)[C@H](CC(=O)O)NC(=O)[C@H](CCC(N)=O)NC(=O)CN1CCN(CC(=O)O)CCN(CC(=O)O)CCN(CC(=O)O)CC1)C(C)C)[C@@H](C)O)C(=O)N[C@@H](C)C(=O)N[C@@H](Cc1c[nH]c2ccccc12)C(N)=O [DOTA-A9] ({DOTA}-QDVNTAVAW-NH2)
[1]
  Solubility: no solubility issues

## CC(C)[C@H](NC(=O)[C@H](C)NC(=O)[C@@H](NC(=O)[C@H](CC(N)=O)NC(=O)[C@@H](NC(=O)[C@H](CC(=O)O)NC(=O)[C@H](CCC(N)=O)NC(=O)CN1CCN(CC(=O)O)CCN(CC(=O)O)CCN(CC(=O)O)CC1)C(C)C)[C@@H](C)O)C(=O)N[C@@H](C)C(=O)N[C@@H](Cc1c[nH]c2ccccc12)C(N)=O [[^177Lu]DOTA-A9, metal not drawn] ({DOTA}-QDVNTAVAW-NH2)
[2]; [3]
  tissue to tissue ratio at 3 h: 3.4 ± 0.49
  tissue to tissue ratio at 24 h: 7.42 ± 1.11
[2]; [4]
  tissue to tissue ratio at 3 h: 8.42 ± 0.04
  tissue to tissue ratio at 24 h: 8.09 ± 2.21
  tissue to tissue ratio at 48 h: 10 ± 1.57
Human serum stability
  Degradation on incubation with human serum (radio-HPLC): no degradation
HER2
  Kd: 0.0484 ± 0.00137 µM

## CC(C)[C@H](NC(=O)[C@H](C)NC(=O)[C@@H](NC(=O)[C@H](CC(N)=O)NC(=O)[C@@H](NC(=O)[C@H](CC(=O)O)NC(=O)[C@H](CCC(N)=O)NC(=O)CCOCCOCCOCCOCCOCCNC(=O)CN1CCN(CC(=O)O)CCN(CC(=O)O)CCN(CC(=O)O)CC1)C(C)C)[C@@H](C)O)C(=O)N[C@@H](C)C(=O)N[C@@H](Cc1c[nH]c2ccccc12)C(N)=O [[^177Lu]DOTA-PEG4-A9, metal not drawn] ({DOTA-PEG5}-QDVNTAVAW-NH2)
[2]; SKBR3 tumor, maximum observed at 3 h p.i., n = 3
  tissue uptake at 3 h: 2.04 ± 0.22 %ID/g
[2]; [3]
  tissue to tissue ratio at 3 h: 3.85 ± 0.02
  tissue to tissue ratio at 24 h: 8.87 ± 1.51
  tissue to tissue ratio at 48 h: 15 ± 1.42
[2]; [4]
  tissue to tissue ratio at 3 h: 15.7 ± 2.06
  tissue to tissue ratio at 24 h: 13.3 ± 0.03
  tissue to tissue ratio at 48 h: 30 ± 2.83
other
  intact radiopeptide after 6 h in human serum: > 95%
Human serum stability
  Degradation on incubation with human serum (radio-HPLC): no change in radiochromatogram
HER2
  Kd: 0.0557 ± 0.0123 µM

## DOTA(GSG)-KCCYSL [[^111In]DOTA(GSG)-KCCYSL, In-111 labeled HER2-targeting KCCYSL peptide]
MDA-MB-435 tumors
  Maximum tumor uptake: 2.12 ± 0.32 % ID/g
  Tumor-to-blood ratio: 10:1
  Tumor-to-muscle ratio: 0.5:1

## HYNIC-(Ser)3-LTVPWY [[^99mTc]HYNIC-(Ser)3-LTVPWY, Tc-99m-labeled peptide targeting HER2 receptors]
U-87 MG tumors
  Tumor-to-blood ratio: 3.39
  Tumor-to-kidney ratio: 0.24
  Tumor-to-muscle ratio: 3.98
